This is an account of results in ChEMBL document CHEMBL1133775, “Potent and selective indolomorphinan antagonists of the kappa-opioid receptor” (J Med Chem, 2000).

Assay [1] addresses Mu-type opioid receptor (Cavia porcellus) (UniProt P97266). Description: Opioid receptor mu 1 Antagonism (100 nM) is expressed as (Ke = [antagonist] / (IC50 ratio -1). In kind it is functional.
Assay [2] has as its target Delta-type opioid receptor (Mus musculus) (UniProt P32300). Description: Ratio of the IC50 of delta receptor agonist, [D-Ala-2, D-Leu5]-enkephalin in the presence of compound in MVD divided by the control IC50. It counts as functional.
The target of assay [3] is Kappa-type opioid receptor (Cavia porcellus) (UniProt P41144). Put plainly: Ratio of the IC50 of Kappa receptor agonist, ethylketazocine in the presence of compound in GPI divided by the control IC50. It counts as functional.
A short description of assay [4]: Selectivity ratio, ratio of Ke value of mu to kappa opioid receptor.
Assay [5] addresses Kappa-type opioid receptor (Cavia porcellus) (UniProt P41144). Put plainly: Opioid receptor kappa 1 Antagonism (100 nM) is expressed as (Ke = [antagonist] / (IC50 ratio -1). In kind it is functional.
In assay [6] the target is Mu-type opioid receptor (Cavia porcellus) (UniProt P97266). Put plainly: Ratio of the IC50 of mu receptor agonist, Morphine in the presence of compound in GPI divided by the control IC50. It counts as functional.
Assay [7] has as its target T1, Opioid receptors; delta & kappa (Homo sapiens) (UniProt P41145+P41143). Put plainly: Selectivity ratio, ratio of Ke value of Kappa to Delta opioid receptor (extrapolated value). In kind it is protein assay.
Assay [8] deals with Kappa-type opioid receptor (Rattus norvegicus, UniProt P34975). Put plainly: Binding affinity on HEK293 cells transiently transfected with plasmids encoding the rat Opioid receptor kappa 1. In kind it is cell-based.
In assay [9] the target is T1, Opioid receptors; delta & kappa (Homo sapiens). Put plainly: Selectivity ratio, ratio of Ke value of delta to kappa opioid receptor. In kind it is protein assay.
The target is the same in assay [10]. Put plainly: Selectivity ratio, ratio of binding affinity of delta to kappa opioid receptor. It counts as protein assay.
Assay [11] concerns the target Delta-type opioid receptor (Rattus norvegicus, UniProt P33533). Put plainly: Binding affinity on HEK293 cells transiently transfected with plasmids encoding the rat Opioid receptor delta 1. In kind it is cell-based.
A further assay addresses Mu-type opioid receptor (Rattus norvegicus, UniProt P33535). Description: Binding affinity on HEK293 cells transiently transfected with plasmids encoding the rat Opioid receptor mu 1. It counts as cell-based.
Assay [12] concerns the target Opioid receptors; mu & kappa (Homo sapiens) (UniProt P41145+P35372). Description: Selectivity ratio, ratio of binding affinity of mu to kappa opioid receptor. In kind it is protein assay.
Assay [13] concerns the target Delta-type opioid receptor (Mus musculus) (UniProt P32300). Description: Opioid receptor delta 1 Antagonism (100 nM) is expressed as (Ke = [antagonist] / (IC50 ratio -1). In kind it is functional.
The target in assay [14] is T1, Opioid receptors; delta & kappa (Homo sapiens). Put plainly: Selectivity ratio, ratio of Ke value of kappa to delta opioid receptor (extrapolated value). It counts as protein assay.

Molecules are shown by their SMILES. pKi: −log10 of the molar value.

Sequence of Mu-type opioid receptor (Cavia porcellus) (P97266 whole entry): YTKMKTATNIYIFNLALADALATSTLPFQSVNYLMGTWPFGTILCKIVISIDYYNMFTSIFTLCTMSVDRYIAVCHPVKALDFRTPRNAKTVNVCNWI
Sequence of Kappa-type opioid receptor (Cavia porcellus) (P41144 whole entry): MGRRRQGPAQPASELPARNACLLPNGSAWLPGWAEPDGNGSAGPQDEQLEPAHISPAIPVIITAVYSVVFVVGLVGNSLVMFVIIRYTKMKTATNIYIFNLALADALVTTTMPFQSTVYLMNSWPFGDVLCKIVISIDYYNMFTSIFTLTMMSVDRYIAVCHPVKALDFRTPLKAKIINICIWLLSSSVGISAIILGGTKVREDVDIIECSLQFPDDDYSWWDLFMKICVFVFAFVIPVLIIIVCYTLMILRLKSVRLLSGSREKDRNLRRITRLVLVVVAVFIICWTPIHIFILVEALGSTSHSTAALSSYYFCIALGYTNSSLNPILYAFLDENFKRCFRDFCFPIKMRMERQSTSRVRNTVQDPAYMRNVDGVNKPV
Sequence of Delta-type opioid receptor (Mus musculus) (P32300 whole entry): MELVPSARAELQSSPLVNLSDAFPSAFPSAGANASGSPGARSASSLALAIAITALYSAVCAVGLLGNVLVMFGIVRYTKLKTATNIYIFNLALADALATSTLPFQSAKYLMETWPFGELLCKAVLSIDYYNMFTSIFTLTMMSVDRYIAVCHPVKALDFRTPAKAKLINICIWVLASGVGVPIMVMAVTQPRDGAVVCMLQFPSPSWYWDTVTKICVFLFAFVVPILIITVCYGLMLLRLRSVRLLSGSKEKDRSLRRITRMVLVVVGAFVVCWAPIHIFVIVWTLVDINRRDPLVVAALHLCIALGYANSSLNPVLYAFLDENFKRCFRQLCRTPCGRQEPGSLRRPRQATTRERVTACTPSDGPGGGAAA
T1 sequence (P41143 whole entry, looked up): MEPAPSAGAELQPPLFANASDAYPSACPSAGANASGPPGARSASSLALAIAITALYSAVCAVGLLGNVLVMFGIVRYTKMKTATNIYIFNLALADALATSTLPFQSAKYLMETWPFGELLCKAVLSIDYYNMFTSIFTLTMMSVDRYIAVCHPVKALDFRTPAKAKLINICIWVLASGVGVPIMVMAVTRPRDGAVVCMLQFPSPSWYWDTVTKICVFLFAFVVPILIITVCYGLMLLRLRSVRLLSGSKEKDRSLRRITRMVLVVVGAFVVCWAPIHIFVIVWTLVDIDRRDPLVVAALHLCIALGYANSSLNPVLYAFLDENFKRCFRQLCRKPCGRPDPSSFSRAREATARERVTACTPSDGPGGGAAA
T1 sequence (P41145 whole entry, looked up): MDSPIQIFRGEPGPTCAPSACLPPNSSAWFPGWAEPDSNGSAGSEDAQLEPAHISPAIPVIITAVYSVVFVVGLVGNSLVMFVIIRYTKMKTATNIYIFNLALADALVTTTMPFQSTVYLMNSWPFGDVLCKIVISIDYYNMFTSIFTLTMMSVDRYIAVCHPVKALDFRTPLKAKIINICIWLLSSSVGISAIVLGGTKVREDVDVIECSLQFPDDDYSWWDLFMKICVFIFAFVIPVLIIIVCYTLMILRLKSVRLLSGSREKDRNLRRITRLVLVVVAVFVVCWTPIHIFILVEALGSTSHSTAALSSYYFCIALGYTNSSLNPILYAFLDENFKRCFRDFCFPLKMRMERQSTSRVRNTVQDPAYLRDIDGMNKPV
Sequence of Opioid receptors; mu & kappa (Homo sapiens) (P35372 whole entry, looked up): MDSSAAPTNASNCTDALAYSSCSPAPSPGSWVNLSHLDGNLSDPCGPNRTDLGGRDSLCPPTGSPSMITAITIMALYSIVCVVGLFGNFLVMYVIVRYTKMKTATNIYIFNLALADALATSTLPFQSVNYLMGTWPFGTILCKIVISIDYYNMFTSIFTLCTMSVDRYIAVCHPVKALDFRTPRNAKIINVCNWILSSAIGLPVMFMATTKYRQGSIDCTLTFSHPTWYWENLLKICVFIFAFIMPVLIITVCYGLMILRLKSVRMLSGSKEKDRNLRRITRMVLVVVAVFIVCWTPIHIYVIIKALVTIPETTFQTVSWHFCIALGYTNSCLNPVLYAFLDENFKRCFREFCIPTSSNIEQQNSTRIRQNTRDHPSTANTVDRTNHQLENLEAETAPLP
Sequence of Opioid receptors; mu & kappa (Homo sapiens) (P41145 whole entry, looked up): as the sequence (P41145 whole entry, looked up) above
Sequence of Kappa-type opioid receptor (P34975 whole entry): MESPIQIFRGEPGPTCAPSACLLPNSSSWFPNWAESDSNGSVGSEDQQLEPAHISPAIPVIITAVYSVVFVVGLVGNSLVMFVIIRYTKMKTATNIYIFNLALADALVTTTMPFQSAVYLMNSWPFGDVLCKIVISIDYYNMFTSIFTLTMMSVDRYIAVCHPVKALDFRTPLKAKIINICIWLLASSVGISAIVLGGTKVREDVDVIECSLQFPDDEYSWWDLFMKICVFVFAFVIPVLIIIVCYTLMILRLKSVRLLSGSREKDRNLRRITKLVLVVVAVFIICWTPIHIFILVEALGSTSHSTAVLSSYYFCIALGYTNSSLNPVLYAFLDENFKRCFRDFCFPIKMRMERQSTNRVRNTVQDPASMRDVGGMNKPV
Sequence of Delta-type opioid receptor (P33533 whole entry): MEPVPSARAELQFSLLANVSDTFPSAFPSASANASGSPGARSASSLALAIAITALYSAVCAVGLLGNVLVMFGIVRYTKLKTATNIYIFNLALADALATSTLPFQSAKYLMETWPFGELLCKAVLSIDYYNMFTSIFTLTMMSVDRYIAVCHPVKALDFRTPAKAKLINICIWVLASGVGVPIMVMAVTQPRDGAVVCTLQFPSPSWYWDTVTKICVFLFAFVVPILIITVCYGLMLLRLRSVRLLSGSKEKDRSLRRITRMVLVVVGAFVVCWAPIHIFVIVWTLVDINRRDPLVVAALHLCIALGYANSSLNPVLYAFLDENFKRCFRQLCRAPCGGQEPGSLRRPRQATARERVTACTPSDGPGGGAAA
Sequence of Mu-type opioid receptor (P33535 whole entry): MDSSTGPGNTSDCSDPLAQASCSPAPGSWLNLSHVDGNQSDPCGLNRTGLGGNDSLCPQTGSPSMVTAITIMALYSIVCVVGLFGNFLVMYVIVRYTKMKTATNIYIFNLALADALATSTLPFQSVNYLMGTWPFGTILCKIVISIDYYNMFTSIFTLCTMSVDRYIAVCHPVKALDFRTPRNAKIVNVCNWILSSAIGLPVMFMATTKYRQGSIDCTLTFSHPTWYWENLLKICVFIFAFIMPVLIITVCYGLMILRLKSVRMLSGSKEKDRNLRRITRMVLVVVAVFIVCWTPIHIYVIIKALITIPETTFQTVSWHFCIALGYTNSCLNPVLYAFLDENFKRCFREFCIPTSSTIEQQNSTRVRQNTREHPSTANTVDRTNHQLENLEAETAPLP

As to `CSC(=N)Nc1ccc2[nH]c3c(c2c1)C[C@@]1(O)C2Cc4ccc(O)c5c4[C@@]1(CCN2CC1CC1)[C@H]3O5`, the Ke in assay [1] is 16 nM; in [5], 0.5 nM. The figures for the IC50 ratio in [2], in [3] and in [6] were 1.9, 43.6 and 7.4, respectively. Further, the Ratio is 33 in [4] and 115 in assay [7].
As usually defined, the pKi is the negative decadic logarithm of the Ki, by convention in mol/L. For `N=C(N)NCCc1ccc2[nH]c3c(c2c1)C[C@@]1(O)[C@H]2Cc4ccc(O)c5c4[C@@]1(CCN2CC1CC1)[C@H]3O5`, the values for the Ke in assay [1], in assay [5] and in [13] were 12 nM, 1.7 nM and 3.4 nM, respectively. Moreover, the IC50 ratio in assay [2] was found to be 30.1; in assay [3] it was 59.8; in assay [6], 9.1. In addition, the values for the pKi (in [8]; in [11]; at Mu-type opioid receptor) were 9.29, 7.97 and 7.48, respectively. Moreover, the Ratio was determined as 2 in [9], 21 in assay [10], 7.3 in [4] and 66 in assay [12].
On to `N#CN/C(N)=N/Cc1ccc2[nH]c3c(c2c1)C[C@@]1(O)C2Cc4ccc(O)c5c4[C@@]1(CCN2CC1CC1)[C@H]3O5`, for which the Ke in assay [1] amounted to 18 nM; in assay [5], 2.9 nM; in assay [13], 5.9 nM. In addition, the IC50 ratio turned out to be 17.9 in assay [2], 35.4 in [3] and 6.7 in [6]. The Ratio was determined as 2 in assay [9] and 6.2 in assay [4].
For `C[N+](C)(C)CCc1ccc2[nH]c3c(c2c1)C[C@@]1(O)C2Cc4ccc(O)c5c4[C@@]1(CCN2CC1CC1)[C@H]3O5`, the Ke amounted to 5.7 nM in [1] and 0.4 nM in [5]. Besides, the Ratio in assay [14] was 96; in assay [4], 13. In addition, the IC50 ratio in assay [2] was 2.5; in assay [3] it was 48; in assay [6], 18.5.
As for `N=C(N)Nc1ccc2[nH]c3c(c2c1)C[C@@]1(O)[C@H]2Cc4ccc(O)c5c4[C@@]1(CCN2CC1CC1)[C@H]3O5` [GUANIDINONALTRINDOLE], the negative-log Ki (pKi) in assay [8] is 9.74; in assay [11] it was 7.34; at Mu-type opioid receptor, 7.65. In addition, the Ratio in assay [10] is 257; in [4] it was 193; in assay [7], 366; in [12] it was 125.
